Assays:
[1] = target: T1, Electrophorus electricus AChE (EeAChE) (Electrophorus electricus, UniProt O42275); assay: biochemical; format: biochemical
T1 construct: from human erythrocyte and E. electricus (EeAChE) (type VI-S); purchased Sigma-Aldrich (Germany) type VI-S; host or cells: Electrophorus electricus tissue
Description: (§1) Acetylcholinesterase (AChE, EC 3.1.1.7, from human erythrocyte and E. electricus (EeAChE) (type VI-S), butyrylcholinesterase (BChE, EC 3.1.1.8, from equine serum), carboxylesterase (CaE, EC 3.1.1.1, from porcine liver), acetylthiocholine iodide (ATCh), butylthiocholine iodide (BTCh), 5,5′-dithiobis-(2-nitrobenzoic acid) (DTNB), 4-nitrophenyl acetate (4-NPA), were purchased from Sigma-Aldrich (Germany).
(§2) AChE and BChE activities were measured by the Ellman method as described earlier. The assay solution consisted of 0.1 M K/Na phosphate buffer pH 7.5, 25 °C with the addition of 0.33 mM DTNB, 0.02 unit/mL of AChE or BChE, and 1 mM of substrate (ATCh or BTCh, respectively). The assays were carried out with a reagent blank containing all components except AChE or BChE to account for non-enzymatic hydrolysis of substrate. In addition, an enzyme blank was included that contained all components except substrate to account for non-substrate sulfhydryl groups. […] The assay solution consisted of 0.1 M K/Na phosphate buffer pH 8.0, 25 °C with the addition of 1 mM 4-nitrophenyl acetate and 0.02 unit/mL of CaE. Assays were carried out with a blank containing all components except CaE.
(§3) The test compounds were dissolved in DMSO; the incubation mixture contained 2% (v/v) of the solvent. […] The test compounds were added to the assay solution and preincubated at 25°C with the enzymes for 5 min followed by the addition of substrate. A parallel control was made for the assay solution with no inhibitor. […] Each experiment was performed three times. The results were expressed as the mean ± SEM. The reaction rates in the presence and absence of inhibitor were compared, and the percent of residual enzyme activity due to the presence of test compounds was calculated.

[2] = target: T2, human erythrocyte acetylcholinesterase (AChE) (Homo sapiens, UniProt P22303); assay: biochemical; format: biochemical; conditions: mean ± SEM, n ≥ 3
T2 construct: Acetylcholinesterase (AChE, EC 3.1.1.7, from human erythrocyte); purchased Sigma-Aldrich (Germany); host or cells: human erythrocytes
T2 sequence (P22303 32-617 isoform P22303-2 limits assumed): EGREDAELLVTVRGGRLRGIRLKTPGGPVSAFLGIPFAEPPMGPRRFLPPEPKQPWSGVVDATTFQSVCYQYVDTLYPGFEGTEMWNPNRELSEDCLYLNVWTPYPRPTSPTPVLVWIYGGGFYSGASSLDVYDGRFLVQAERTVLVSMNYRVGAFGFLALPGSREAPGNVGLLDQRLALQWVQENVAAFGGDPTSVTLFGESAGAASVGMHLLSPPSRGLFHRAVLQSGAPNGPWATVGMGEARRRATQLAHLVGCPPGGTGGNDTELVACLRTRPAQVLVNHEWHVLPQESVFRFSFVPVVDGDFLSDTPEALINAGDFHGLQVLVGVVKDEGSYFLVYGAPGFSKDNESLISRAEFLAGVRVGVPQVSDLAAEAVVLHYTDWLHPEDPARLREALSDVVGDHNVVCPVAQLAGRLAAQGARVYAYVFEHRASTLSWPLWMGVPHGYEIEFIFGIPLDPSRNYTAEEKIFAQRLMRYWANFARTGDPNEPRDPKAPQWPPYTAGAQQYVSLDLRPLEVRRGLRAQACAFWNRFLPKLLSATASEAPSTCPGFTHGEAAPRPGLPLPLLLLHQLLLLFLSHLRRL
Description: as §1, §2, §3

[3] = target: T3, equine serum butyrylcholinesterase (BChE) (Equus caballus, UniProt P81908); assay: biochemical; format: biochemical; conditions: mean ± SEM, n ≥ 3
T3 construct: butyrylcholinesterase (BChE, EC 3.1.1.8, from equine serum); purchased Sigma-Aldrich (Germany); host or cells: equine serum
T3 sequence (P81908 whole entry): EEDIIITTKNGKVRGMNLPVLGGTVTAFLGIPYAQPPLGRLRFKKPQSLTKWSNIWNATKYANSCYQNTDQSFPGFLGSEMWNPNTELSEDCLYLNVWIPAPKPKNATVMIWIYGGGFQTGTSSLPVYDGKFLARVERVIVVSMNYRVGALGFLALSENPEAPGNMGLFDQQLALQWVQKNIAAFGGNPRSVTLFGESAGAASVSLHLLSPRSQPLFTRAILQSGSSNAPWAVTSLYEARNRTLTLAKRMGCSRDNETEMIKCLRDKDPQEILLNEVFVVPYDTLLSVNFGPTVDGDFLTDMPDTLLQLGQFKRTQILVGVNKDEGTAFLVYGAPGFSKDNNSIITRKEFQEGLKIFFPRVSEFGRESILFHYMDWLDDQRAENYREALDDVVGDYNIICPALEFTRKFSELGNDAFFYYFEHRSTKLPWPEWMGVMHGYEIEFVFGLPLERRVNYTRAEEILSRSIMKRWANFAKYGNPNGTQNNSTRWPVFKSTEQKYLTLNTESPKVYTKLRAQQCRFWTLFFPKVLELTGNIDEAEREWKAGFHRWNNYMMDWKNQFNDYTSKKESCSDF
Description: as §1, §2, §3

[4] = Oxygen radical absorbance capacity assay (ORAC-FL); conditions: ORAC-FL, AAPH, fluorescein, 37 °C, pH 7.4; Trolox taken as 1
Description: The ability of the conjugates to reduce the amount of peroxyl radicals as another characteristic of the antioxidant activity of the compounds was determined using the oxygen radical absorbance capacity by fluorescence (ORAC-FL) method using fluorescein (FL) as a fluorescent probe. The method is based on measuring the decrease in the intensity of fluorescence with time, which characterizes the degree of decay of the fluorescent probe under the influence of peroxyl radicals. In the presence of antioxidants, the degree of decay of the fluorescent probe decreases and, accordingly, the fluorescence time increases.
The ability of compounds to scavenge peroxyl radicals was characterized by the value of the Trolox equivalent (TE, μmol of Trolox per μmol of the tested compound), which is equal to the ratio of the Trolox concentration to the tested compound concentration having the same fluorescence intensity. Peroxyl radical scavenging capacity of Trolox is taken as one (1)[67],[68].
2,2′-Azobis-(amidinopropane) dihydrochloride (AAPH), (±)-6-hydroxy-2,5,7,8-tetramethylchromane-2-carboxylic acid (Trolox) and fluorescein (FL) were purchased from Sigma-Aldrich. The reaction was carried out at 37 °C in 75 mM K,Na phosphate buffer (pH 7.4), and the final reaction mixture was 200 µL. The tested compounds and Trolox standard were dissolved in DMSO to 10 mM and further diluted in 75 mM K,Na phosphate buffer (pH 7.4). […] The blank was composed of 20 µL 75 mM K,Na phosphate buffer (pH 7.4) containing 2% (v/v) DMSO, 120 µL FL and 60 µL AAPH, and was added in each assay. Antioxidant (the test compound or Trolox, 20 µL) and FL (120 µL, final concentration: 70 nM) solutions were placed in a black 96-well microplate and were pre-incubated for 15 min at 37 °C. AAPH solution (60 µL, final concentration 12 mM) was then added rapidly using a multichannel pipette. The fluorescence was recorded every minute for 100 min. A Trolox standard curve was also obtained in each assay. All reactions were carried out in triplicate and at least three different assays were performed for each sample.
Antioxidant curves (fluorescence vs. time) were first normalized to the curve of the blank (without antioxidant) corresponding to the same assay, and the area under the fluorescence decay curve (AUC) was calculated. The net AUC corresponding to a sample was calculated by subtracting the AUC corresponding to the blank. Regression equations were calculated by plotting the net AUC against the antioxidant concentration. The ORAC value was obtained by dividing the slope of the latter curve by the slope of the Trolox curve obtained in the same assay. […] Data were expressed as means ± SEM.

[5] = tested on: isolated rat liver mitochondria; assay: Inhibition of iron-induced lipid peroxidation (TBARs); conditions: read-out: IC50 of Fe3+-induced LP, LP induced by 0.5 mM Fe3+, mean ± SEM, n ≥ 3
[6] = target: T4, porcine liver carboxylesterase (CaE) (Sus scrofa, UniProt Q29550); assay: CaE inhibition (4-nitrophenyl acetate hydrolysis); format: biochemical; conditions: 20 µM, mean ± SEM, n ≥ 3, n.a. = not active at 20 µM
T4 sequence (Q29550 19-566): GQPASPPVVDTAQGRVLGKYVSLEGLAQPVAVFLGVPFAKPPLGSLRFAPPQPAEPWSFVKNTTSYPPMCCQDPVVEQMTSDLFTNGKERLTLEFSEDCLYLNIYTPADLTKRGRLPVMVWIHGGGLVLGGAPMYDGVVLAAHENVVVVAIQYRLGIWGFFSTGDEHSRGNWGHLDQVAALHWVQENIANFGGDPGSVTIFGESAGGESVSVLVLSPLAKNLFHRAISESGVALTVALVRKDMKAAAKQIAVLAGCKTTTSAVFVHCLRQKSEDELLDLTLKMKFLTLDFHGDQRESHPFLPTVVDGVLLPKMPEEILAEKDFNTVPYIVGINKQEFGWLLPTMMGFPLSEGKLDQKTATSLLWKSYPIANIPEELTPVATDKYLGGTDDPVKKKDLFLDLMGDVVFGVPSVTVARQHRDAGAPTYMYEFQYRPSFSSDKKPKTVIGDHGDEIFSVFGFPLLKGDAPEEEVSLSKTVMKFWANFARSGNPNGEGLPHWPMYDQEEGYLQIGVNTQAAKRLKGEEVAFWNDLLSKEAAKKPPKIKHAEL
Description: as §1, §2, §3

[7] = ABTS radical cation scavenging assay; conditions: 1 h incubation; for ABTS·+ scavenging activity, TEAC value: Trolox equivalent antioxidant capacity, ratio of slopes compound/Trolox
Description: This assay is based on the production of a stable dark green ABTS cation-radical (ABTS^·+) by incubating ABTS ([2,2′-azino-bis(3-eth-ylbenzothiazoline-6-sulfonic acid diammonium salt)) with potassium persulfate. […] The ABTS radical-scavenging activity of the compounds was measured according to an established method[66] with some modifications, at 30 °С in the dark; incubation time was 1 hour. […] The results were expressed as TEAC values (Trolox equivalent antioxidant capacity) calculated by dividing the slope of ABTS^·+ concentration decrease versus the antioxidant concentration by the slope of the Trolox plot.
Radical scavenging activity of the compounds was assessed using an ABTS radical decolorization assay[66] with some minor modifications. ABTS (2,2′-azino-bis-(3-ethylbenzothiazoline-6-sulfonic acid) diammonium salt) was purchased from TCI (Tokyo, Japan); potassium persulfate (di-potassium peroxodisulfate) and Trolox (6-hydroxy-2,5,7,8-tetramethychroman-2-carboxylic acid were obtained from Sigma-Aldrich Chemical Co. (St. Louis, MO, USA). Ethanol was HPLC grade. Aqueous solutions were prepared using deionized water.
Trolox was used as the antioxidant standard. A 5 mM solution of Trolox was prepared in DMSO for use as stock. Fresh working solutions of known concentrations (1–100 μM) were prepared on the day of experiments and used for calibration and as positive controls for ABTS radical cation (ABTS^•+) scavenging activity. ABTS was dissolved in deionized water to a 7 mM concentration. […] Fresh working ABTS^•+ solution was prepared for each assay.
The radical scavenging capacity of the compounds was analyzed by mixing 10 μl of compound with 240 μl of ABTS^•+ working solution. […] Ethanol blanks were run in each assay. Values were obtained from three replicates of each sample and three independent experiments.
Antioxidant capacity as a Trolox equivalent (TEAC values) was determined as the ratio between the slopes obtained from the linear correlation for concentrations of test compounds and Trolox with absorbance of ABTS radical.

[8] = target: T5, peripheral anionic site (PAS) of EeAChE (Electrophorus electricus, UniProt O42275); format: binding; conditions: EeAChE 7 μM, propidium iodide 8 μM
T5 construct: from human erythrocyte and E. electricus (EeAChE) (type VI-S); purchased Sigma-Aldrich (Germany) type VI-S; host or cells: Electrophorus electricus tissue
T5 sequence (O42275 24-633): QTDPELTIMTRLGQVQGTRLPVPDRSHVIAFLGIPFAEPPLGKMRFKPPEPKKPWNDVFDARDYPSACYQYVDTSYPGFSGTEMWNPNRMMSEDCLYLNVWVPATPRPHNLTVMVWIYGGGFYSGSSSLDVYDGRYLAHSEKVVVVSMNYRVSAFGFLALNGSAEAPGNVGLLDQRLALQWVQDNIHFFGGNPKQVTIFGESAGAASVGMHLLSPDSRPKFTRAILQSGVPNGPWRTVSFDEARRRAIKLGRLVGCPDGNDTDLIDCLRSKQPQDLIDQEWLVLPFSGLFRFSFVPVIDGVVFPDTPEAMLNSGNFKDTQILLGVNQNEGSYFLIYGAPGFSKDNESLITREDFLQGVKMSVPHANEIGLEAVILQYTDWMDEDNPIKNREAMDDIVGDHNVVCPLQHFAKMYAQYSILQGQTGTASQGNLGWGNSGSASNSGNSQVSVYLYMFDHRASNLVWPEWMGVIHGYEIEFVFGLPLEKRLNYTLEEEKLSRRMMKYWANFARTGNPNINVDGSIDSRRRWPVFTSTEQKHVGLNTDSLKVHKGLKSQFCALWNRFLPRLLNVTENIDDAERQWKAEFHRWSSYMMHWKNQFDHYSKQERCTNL
Excerpt: The fluorescent assay used to evaluate competitive propidium iodide displacement from the PAS of AChE is commonly used as primary screening method of AChE pro-aggregation activity inhibitors. Propidium iodide is a selective ligand for the PAS of AChE responsible for Aβ binding.
EeAChE was used owing to its high degree of purification, high activity, and lower cost than human AChE. […] The fluorescence intensity of propidium iodide bound with AChE increases several times.
To determine the degree of displacement (% displacement) of propidium iodide from the PAS of AChE, EeAChE (final concentration 7 μM) was incubated with the test compound at a concentration of 3 and 20 μM in 1 mM Tris-HCl buffer pH 8.0, 25 °C for 15 min. Then, propidium iodide solution (final concentration 8 μM) was added, the samples were incubated for 15 min and the fluorescence spectrum (530 nm (excitation) and 600 nm (emission)) was taken. Donepezil and tacrine were used as reference compounds. The blank contained propidium iodide of the same concentration in 1 mM Tris-HCl buffer pH 8.0. The measurements were carried out in triplicate on a microplate reader FLUOStar Optima (BMG Labtech Germany).
The degree of displacement (% displacement) of propidium iodide from the peripheral anionic site of AChE was calculated by the following formula: %Displacement=100−(IFAChE+Propidium+inhibitor/IFAChE+Propidium)[…], where IFAChE + Propidium is the fluorescence intensity of the propidium associated with AChE in the absence of the test compound (taken as 100%), and IFAChE + Propidium + inhibitor is the fluorescence intensity of the propidium associated with AChE in the presence of the test compound.

T1 sequence (O42275 24-633): as above

Row | SMILES | IC50 [1] [µM] | IC50 [2] [µM] | IC50 [3] [µM] | ORAC TE value [4] [µmol Trolox/ µmol comp.] | IC50 [5] [µM] | % inhibition of CaE at 20 µM [6] | ABTS·+ scavenging activity, TEAC value [7] | % Displacement of propidium iodide, 3 µM ([8]; compound 3 µM) [%] | % Displacement of propidium iodide, 20 µM ([8]; compound 20 µM) [%] | IC50 ([7]; concentration reducing ABTS·+ by 50%) [µM]
1 | Cc1ccc2c(c1)c1c(n2CCc2ccc(C)nc2)CCN(C)C1 [Dimebon, reference compound] | 32.4 ± 3.5 | 36.3 ± 3.59 | 5.76 ± 0.51 | 1.07 ± 0.08 | > 30 | n.а. | 0.004 | 2.8 ± 0.2 | 6.0 ± 0.5 | 
2 | Cc1c(C)c2c(c(C)c1O)CCC(C)(C(=O)O)O2 (stereo not drawn) [Trolox, 6-hydroxy-2,5,7,8-tetramethychroman-2-carboxylic acid, reference compound] |  |  |  | 1.0 |  |  | 1.0 |  |  | 20.4 ± 1.7
